We go through 2 compounds from PMC4705659, “Functional dichotomy in the 16S rRNA (m^1A1408) methyltransferase family and control of catalytic activity via a novel tryptophan mediated loop reorganization” (Nucleic Acids Research, 2015).

In experiment [1] the target is T1, CacKam (Catenulispora acidiphila, UniProt C7Q5P8, W113F).
T1 construct: gene Caci_9046; full length 250 residues, N-terminal hexahistidine tag with thrombin site kept; E. coli BL21 (DE3)
Description: biochemical. The experiment is classed as binding. The text has this:
(§1) isothermal titration calorimetry on CacKam

Experiment [2] has as its target T2, CacKam (Catenulispora acidiphila, UniProt C7Q5P8, W203A).
T2 construct: gene Caci_9046; full length 250 residues, N-terminal hexahistidine tag with thrombin site kept; E. coli BL21 (DE3)
In words: biochemical. The class given is binding.
Excerpt: as §1

The target of experiment [3] is T3, CacKam (Catenulispora acidiphila, UniProt C7Q5P8).
T3 construct: gene Caci_9046
The settings on record: 1 mM SAM; E. coli 30S subunits; 10 mM MgCl2; pH 7.5; 37 °C.

The target in experiment [4] is T4, CacKam (Catenulispora acidiphila, UniProt C7Q5P8, S201A).
T4 construct: gene Caci_9046
In words: biochemical.

The target in experiment [5] is T5, CacKam (Catenulispora acidiphila, UniProt C7Q5P8, E94A).
T5 construct: gene Caci_9046
In words: biochemical.

T1 sequence (C7Q5P8 entry or part of it W113F): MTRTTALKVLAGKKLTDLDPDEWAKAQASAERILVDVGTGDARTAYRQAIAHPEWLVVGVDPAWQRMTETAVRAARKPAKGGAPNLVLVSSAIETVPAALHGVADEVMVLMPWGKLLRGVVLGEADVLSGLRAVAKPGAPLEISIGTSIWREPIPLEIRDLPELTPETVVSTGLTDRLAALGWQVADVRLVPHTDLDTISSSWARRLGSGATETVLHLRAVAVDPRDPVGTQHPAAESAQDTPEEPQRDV
T2 sequence (C7Q5P8 entry or part of it W203A): as the sequence (C7Q5P8 entry or part of it W113F) above
T3 sequence (C7Q5P8 entry or part of it): as the sequence (C7Q5P8 entry or part of it W113F) above
T4 sequence (C7Q5P8 entry or part of it S201A): as the sequence (C7Q5P8 entry or part of it W113F) above
T5 sequence (C7Q5P8 entry or part of it E94A): as the sequence (C7Q5P8 entry or part of it W113F) above

As for `C[S+](CC[C@H](N)C(=O)O)C[C@H]1O[C@@H](n2cnc3c(N)ncnc32)[C@H](O)[C@@H]1O` (stereo partly shown) [SAM], the Kd turned out to be 103 µM at CacKam [1], 68 µM on CacKam [2], 110 µM on CacKam [4] and 29 µM on CacKam [5]. Moreover, at CacKam [3], the “30S methylation, reverse transcription primer extension” value was “Methylation by the wild-type enzyme was essentially the same under each condition as expected”.

`Nc1ncnc2c1ncn2[C@@H]1O[C@H](CSCC[C@H](N)C(=O)O)[C@@H](O)[C@H]1O` [SAH]: the values for the Kd on CacKam [1] and on CacKam [2] were 11 µM and 5.1 µM, respectively.

The term Kd denotes the free concentration of one partner at which half of the binding sites on the other are occupied at equilibrium, for simple one-to-one binding.
